Assay results published in patent US20080038382A1 (priority 2004, published 2008).
Where two headings read alike, the source gives them in different places.

Key:
SARS-CoV = settings: background, cited sources; cited from earlier work
SARS CoV = type: cell-based; settings: for mean number of plaques: 3 days incubation at 37° C., vero C1008 cells; for plaques as % of virus control: virus control = 100%
RSV S2 = type: cell-based; settings: 100 μg/ml

CCOC(=O)/C=C/[C@H](C[C@@H]1CCNC1=O)NC(=O)[C@@H](CC(=O)[C@@H](NC(=O)c1cc(C)on1)C(C)C)Cc1ccc(F)cc1 [AG7088]
activity against SARS virus (reported in literature/news) (SARS-CoV): failed to inhibit virus

Cc1cccc(C)c1OCC(=O)N[C@@H](Cc1ccccc1)[C@@H](O)C[C@H](Cc1ccccc1)NC(=O)[C@H](C(C)C)N1CCCNC1=O [Lopinavir]
activity against SARS virus (reported in literature/news) (SARS-CoV): partially active

Cc1c(O)cccc1C(=O)N[C@@H](CSc1ccccc1)[C@H](O)CN1C[C@H]2CCCC[C@H]2C[C@H]1C(=O)NC(C)(C)C [Nelfinavir]
activity against SARS virus (reported in literature/news) (SARS-CoV): partially active

NC(=O)c1ncn([C@@H]2O[C@H](CO)[C@@H](O)[C@H]2O)n1 [Ribavirin]
mean number of plaques (SARS CoV; Ribavirin 10 μg/ml): mean 114.75
plaques as % of virus control (SARS CoV; Ribavirin 10 μg/ml): (97.5%)
mean number of plaques (SARS CoV; Ribavirin 100 μg/ml): mean 87.25
plaques as % of virus control (SARS CoV; Ribavirin 100 μg/ml): (74.1%)
plaque size compared with controls (SARS CoV; higher concentrations (Ribavirin 100 μg/ml, PYN5C 200 μg/ml)): smaller than for the controls
protection of the cells against RSV (RSV S2): did not protect
activity against SARS virus (reported in literature/news) (SARS-CoV): appear to be efficacious

CC1(C)[C@@H](O[C@H]2O[C@H](C(=O)O)[C@@H](O)[C@H](O)[C@H]2O[C@@H]2O[C@H](C(=O)O)[C@@H](O)[C@H](O)[C@H]2O)CC[C@]2(C)[C@H]3C(=O)C=C4[C@@H]5C[C@@](C)(C(=O)O)CC[C@]5(C)CC[C@@]4(C)[C@]3(C)CC[C@@H]12 [glycyrrhizin]
activity against SARS virus (reported in literature/news) (SARS-CoV): appear to be efficacious
